# In paper PMC4505863 (ACS Chemical Neuroscience, 2014):
# Columns and labels:
# 5-HT2A receptor [1] = molecular target: T1, 5-HT2A receptor (Homo sapiens, UniProt P28223); test: h5-HT2A affinity, antagonist radioligand [3H]ketanserin; assay type: binding
# 5-HT2A receptor [2] = molecular target: T1, 5-HT2A receptor; test: h5-HT2A affinity, agonist radioligand [125I]DOI; assay type: binding
# human 5-HT2C receptor [3] = molecular target: T2, human 5-HT2C receptor (Homo sapiens, UniProt P28335); test: h5-HT2C affinity, antagonist radioligand [3H]mesulergine; assay type: binding
# T2 sequence (P28335 33-458): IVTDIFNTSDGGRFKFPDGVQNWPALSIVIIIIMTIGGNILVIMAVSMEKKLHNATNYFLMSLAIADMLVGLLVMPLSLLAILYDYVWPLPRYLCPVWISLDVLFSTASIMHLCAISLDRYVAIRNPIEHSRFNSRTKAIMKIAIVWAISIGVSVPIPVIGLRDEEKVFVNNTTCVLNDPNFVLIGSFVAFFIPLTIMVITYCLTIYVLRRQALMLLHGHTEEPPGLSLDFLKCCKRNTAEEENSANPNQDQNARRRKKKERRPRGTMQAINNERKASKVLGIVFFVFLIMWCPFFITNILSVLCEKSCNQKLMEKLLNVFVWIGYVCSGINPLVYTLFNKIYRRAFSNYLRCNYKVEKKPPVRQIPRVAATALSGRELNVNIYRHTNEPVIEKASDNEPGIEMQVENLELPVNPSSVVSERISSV
# human 5-HT2C receptor [4] = molecular target: T2, human 5-HT2C receptor; test: h5-HT2C affinity, agonist radioligand [125I]DOI; assay type: binding
# 5-HT2B = 5-HT2B (Homo sapiens, UniProt P41595); test: PDSP screening affinity 5-HT2B; assay type: binding
# 5-HT1A = molecular target: T3, 5-HT1A (Homo sapiens, UniProt P08908); test: PDSP screening affinity 5-HT1A; assay type: binding; conditions: 5-HT1A affinity
# T3 sequence (P08908 1-422): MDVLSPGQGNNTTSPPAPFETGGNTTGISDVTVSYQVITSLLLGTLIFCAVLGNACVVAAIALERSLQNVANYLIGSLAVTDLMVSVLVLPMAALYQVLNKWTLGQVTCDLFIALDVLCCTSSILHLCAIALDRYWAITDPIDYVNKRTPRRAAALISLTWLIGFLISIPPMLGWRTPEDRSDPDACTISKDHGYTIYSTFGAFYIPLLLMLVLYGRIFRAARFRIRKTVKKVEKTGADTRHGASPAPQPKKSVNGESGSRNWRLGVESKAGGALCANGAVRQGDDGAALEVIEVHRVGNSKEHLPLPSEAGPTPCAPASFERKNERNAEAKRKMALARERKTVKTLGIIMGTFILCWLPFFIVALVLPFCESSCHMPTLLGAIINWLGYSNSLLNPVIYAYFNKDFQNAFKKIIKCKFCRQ
# 5-HT1B = 5-HT1B (Homo sapiens, UniProt P28222); test: PDSP screening affinity 5-HT1B; assay type: binding
# 5-HT1D = 5-HT1D (Homo sapiens, UniProt P28221); test: PDSP screening affinity 5-HT1D; assay type: binding
# 5-ht1e = 5-ht1e (Homo sapiens, UniProt P28566); test: PDSP screening affinity 5-ht1e; assay type: binding
# 5-HT3 = molecular target: T4, 5-HT3 (Homo sapiens, UniProt P46098); test: PDSP screening affinity 5-HT3; assay type: binding
# T4 sequence (P46098 24-478): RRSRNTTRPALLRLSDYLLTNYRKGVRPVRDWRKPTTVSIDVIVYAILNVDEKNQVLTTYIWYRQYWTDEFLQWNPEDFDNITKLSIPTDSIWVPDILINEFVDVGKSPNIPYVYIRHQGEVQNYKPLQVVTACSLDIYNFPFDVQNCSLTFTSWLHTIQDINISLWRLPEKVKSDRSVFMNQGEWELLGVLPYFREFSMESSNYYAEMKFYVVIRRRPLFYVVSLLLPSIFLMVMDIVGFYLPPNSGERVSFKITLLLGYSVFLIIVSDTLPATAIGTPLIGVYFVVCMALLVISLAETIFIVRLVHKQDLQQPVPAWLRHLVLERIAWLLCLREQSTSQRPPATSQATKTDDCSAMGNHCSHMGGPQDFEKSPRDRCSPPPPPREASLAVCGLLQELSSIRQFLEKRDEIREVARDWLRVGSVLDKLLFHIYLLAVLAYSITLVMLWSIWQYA
# 5-ht5a = 5-ht5a (Homo sapiens, UniProt P47898); test: PDSP screening affinity 5-ht5a; assay type: binding; conditions: 5-ht5a affinity
# 5-HT6 = 5-HT6 (Homo sapiens, UniProt P50406); test: PDSP screening affinity 5-HT6; assay type: binding; conditions: 5-HT6 affinity
# 5-HT7 = 5-HT7 (Homo sapiens, UniProt P34969); test: PDSP screening affinity 5-HT7; assay type: binding; conditions: 5-HT7 affinity
# r5-HT2A = r5-HT2A (Rattus norvegicus, UniProt P14842); test: Ca2+ mobilization assay; assay type: cell-based; conditions: for EC50: r5-HT2A EC50, Ca2+ mobilization; for Emax: read-out: r5-HT2A Emax, percentage of the maximum response to 5-HT
# h5-HT2A = h5-HT2A (Homo sapiens, UniProt P28223); test: Ca2+ mobilization assay; assay type: cell-based
# h5-HT2B = h5-HT2B (Homo sapiens, UniProt P41595); test: Ca2+ mobilization assay; assay type: cell-based; conditions: for Emax: HEK293, read-out: h5-HT2B Emax; for EC50: h5-HT2B EC50, Ca2+ mobilization
# r5-HT2C = molecular target: T5, r5-HT2C (Rattus norvegicus, UniProt P08909); test: Ca2+ mobilization assay; assay type: cell-based; conditions: for Emax: read-out: r5-HT2C Emax
# T5 sequence (P08909 33-460): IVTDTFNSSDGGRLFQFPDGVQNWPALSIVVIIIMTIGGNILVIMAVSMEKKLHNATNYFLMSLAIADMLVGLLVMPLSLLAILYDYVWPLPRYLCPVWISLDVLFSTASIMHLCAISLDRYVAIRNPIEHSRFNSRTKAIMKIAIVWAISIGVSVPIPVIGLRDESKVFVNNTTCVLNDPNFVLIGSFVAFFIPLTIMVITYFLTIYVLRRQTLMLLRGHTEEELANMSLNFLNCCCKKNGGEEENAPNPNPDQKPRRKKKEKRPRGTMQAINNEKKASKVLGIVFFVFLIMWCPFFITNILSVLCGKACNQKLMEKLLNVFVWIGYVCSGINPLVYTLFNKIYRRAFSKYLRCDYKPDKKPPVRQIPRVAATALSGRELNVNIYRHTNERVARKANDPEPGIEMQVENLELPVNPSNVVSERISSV
# h5-HT2C = molecular target: T6, h5-HT2C (Homo sapiens, UniProt P28335); test: Ca2+ mobilization assay; assay type: cell-based; conditions: for Emax: HEK293, read-out: h5HT2C Emax; for EC50: h5HT2C EC50, Ca2+ mobilization
# T6 sequence (P28335 33-458): T2 sequence (P28335 33-458)
# 5-HT2A receptor [5] = molecular target: T1, 5-HT2A receptor; conditions: 5-HT2A agonist radioligand, 5-HT2C antagonist radioligand; cited from earlier work
# 5-HT2A receptor [6] = molecular target: T1, 5-HT2A receptor; conditions: authentic 4-bromo compound; cited from earlier work
# Male C57BL/6J mice = test: Mouse head twitch response; conditions: for activity in the HTR assay (active / inactive): doses up to 30 mg/kg
# rat tail artery = conditions: agonist potency; cited from earlier work
# Chain of r5-HT2A (P14842 whole entry): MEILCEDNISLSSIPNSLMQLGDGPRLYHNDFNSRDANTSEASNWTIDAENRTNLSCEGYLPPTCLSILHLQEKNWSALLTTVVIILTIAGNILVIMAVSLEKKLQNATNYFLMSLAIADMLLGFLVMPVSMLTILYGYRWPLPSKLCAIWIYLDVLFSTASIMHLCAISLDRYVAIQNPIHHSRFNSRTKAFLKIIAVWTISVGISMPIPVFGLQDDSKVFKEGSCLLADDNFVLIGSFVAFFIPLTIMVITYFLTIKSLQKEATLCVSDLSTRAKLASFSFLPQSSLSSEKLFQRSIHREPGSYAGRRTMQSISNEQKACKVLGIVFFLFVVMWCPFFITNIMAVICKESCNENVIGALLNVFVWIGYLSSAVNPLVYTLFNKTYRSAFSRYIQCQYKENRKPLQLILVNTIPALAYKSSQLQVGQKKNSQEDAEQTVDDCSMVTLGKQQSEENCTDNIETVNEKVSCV
# Chain of 5-HT1B (P28222 whole entry): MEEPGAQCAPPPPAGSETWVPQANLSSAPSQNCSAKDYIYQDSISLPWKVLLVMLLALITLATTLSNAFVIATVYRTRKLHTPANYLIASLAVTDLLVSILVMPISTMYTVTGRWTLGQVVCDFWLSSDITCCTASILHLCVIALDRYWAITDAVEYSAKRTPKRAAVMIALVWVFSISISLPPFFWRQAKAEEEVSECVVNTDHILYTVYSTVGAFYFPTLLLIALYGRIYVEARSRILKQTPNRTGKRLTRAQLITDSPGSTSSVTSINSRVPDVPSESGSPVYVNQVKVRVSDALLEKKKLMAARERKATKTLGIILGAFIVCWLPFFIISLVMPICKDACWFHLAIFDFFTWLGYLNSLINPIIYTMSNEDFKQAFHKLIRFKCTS
# Chain of h5-HT2B (P41595 whole entry): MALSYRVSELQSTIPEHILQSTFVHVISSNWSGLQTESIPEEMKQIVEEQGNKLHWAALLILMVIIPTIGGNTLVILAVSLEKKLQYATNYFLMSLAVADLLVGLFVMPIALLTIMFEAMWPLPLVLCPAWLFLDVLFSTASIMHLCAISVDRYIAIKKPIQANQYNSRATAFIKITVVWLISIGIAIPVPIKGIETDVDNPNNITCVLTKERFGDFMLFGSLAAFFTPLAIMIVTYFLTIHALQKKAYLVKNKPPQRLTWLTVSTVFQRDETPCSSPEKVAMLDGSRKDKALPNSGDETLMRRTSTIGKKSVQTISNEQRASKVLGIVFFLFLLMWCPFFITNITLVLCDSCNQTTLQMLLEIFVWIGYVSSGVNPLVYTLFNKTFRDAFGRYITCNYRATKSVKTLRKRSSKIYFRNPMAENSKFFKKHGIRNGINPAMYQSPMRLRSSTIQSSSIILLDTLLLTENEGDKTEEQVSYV
# Chain of 5-HT2B (P41595 whole entry): as above
# T1 sequence (P28223 whole entry): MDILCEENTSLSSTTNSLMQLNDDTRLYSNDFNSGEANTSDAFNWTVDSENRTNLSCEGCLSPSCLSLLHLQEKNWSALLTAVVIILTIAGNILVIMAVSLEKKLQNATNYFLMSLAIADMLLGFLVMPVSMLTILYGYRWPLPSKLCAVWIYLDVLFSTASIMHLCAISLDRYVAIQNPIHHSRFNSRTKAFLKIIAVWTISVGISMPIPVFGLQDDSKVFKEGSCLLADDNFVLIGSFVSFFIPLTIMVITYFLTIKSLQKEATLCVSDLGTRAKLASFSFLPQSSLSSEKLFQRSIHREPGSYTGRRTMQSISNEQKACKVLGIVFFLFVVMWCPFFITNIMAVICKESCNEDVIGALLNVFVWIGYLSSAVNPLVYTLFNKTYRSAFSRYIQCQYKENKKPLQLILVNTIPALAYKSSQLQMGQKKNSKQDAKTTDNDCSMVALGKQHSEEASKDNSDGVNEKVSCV
# Chain of h5-HT2A (P28223 whole entry): as above
# Chain of 5-ht5a (P47898 whole entry): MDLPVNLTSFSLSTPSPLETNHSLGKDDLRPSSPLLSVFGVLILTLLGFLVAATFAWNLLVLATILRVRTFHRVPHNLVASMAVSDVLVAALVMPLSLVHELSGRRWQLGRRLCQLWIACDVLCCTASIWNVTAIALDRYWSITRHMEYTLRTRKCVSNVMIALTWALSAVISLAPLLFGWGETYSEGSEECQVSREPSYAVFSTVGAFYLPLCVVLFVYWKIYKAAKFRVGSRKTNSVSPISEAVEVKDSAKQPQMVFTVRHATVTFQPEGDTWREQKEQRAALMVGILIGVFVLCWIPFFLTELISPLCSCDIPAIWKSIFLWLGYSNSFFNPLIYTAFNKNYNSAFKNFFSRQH
# Chain of 5-ht1e (P28566 whole entry): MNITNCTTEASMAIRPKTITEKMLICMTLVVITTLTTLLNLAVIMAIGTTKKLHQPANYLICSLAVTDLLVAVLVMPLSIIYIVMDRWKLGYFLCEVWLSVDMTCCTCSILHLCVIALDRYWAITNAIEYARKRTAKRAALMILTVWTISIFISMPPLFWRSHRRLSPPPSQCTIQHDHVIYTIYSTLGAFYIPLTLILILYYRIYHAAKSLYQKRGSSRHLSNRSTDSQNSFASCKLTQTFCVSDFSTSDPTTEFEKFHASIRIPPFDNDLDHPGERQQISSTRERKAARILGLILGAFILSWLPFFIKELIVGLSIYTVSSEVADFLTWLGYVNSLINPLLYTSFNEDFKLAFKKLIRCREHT
# Chain of 5-HT1D (P28221 whole entry): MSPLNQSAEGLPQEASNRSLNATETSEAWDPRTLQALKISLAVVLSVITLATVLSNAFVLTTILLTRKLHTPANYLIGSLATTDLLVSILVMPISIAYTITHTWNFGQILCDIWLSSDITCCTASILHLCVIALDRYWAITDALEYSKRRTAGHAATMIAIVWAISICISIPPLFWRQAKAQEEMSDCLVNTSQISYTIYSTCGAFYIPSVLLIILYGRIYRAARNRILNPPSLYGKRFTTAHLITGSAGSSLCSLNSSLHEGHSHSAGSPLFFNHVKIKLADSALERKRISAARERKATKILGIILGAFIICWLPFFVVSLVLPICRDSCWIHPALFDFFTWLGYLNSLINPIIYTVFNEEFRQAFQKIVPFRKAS
# Chain of 5-HT7 (P34969 whole entry): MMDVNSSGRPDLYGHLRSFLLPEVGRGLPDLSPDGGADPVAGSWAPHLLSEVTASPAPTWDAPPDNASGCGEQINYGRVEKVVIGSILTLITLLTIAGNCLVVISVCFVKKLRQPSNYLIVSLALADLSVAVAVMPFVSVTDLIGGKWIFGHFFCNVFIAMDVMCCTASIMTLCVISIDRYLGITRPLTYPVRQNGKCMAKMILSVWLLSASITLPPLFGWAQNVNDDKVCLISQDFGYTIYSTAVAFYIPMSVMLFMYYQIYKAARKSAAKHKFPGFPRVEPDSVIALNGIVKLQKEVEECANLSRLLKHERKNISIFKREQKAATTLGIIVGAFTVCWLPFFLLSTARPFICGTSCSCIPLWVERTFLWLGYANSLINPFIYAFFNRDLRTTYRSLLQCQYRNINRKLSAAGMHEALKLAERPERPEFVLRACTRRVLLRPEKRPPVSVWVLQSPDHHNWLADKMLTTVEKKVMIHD
# Chain of 5-HT6 (P50406 whole entry): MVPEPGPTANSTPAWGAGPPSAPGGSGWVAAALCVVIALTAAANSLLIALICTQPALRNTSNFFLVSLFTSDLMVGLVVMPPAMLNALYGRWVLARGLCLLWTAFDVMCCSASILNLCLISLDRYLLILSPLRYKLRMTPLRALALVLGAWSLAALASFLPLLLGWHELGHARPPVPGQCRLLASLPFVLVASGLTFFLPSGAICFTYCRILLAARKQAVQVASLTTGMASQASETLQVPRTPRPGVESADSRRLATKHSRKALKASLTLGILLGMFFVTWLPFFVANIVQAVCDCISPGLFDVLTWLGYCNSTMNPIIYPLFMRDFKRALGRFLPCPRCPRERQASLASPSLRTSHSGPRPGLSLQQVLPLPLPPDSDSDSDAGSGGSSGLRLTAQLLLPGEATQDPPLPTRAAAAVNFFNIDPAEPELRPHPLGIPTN
SMILES,Ki (5-HT2A receptor [1]) [nM],Ki (5-HT2A receptor [2]) [nM],Ki (human 5-HT2C receptor [3]) [nM],Ki (human 5-HT2C receptor [4]) [nM],Ki (5-HT2B; 5-HT2B affinity) [nM],Ki (5-HT2B; 5-HT2B pKi ± SEM) [nM],Ki (5-HT1A) [nM],Ki (5-HT1B; 5-HT1B affinity) [nM],Ki (5-HT1D) [nM],Ki (5-ht1e) [nM],Ki (5-HT3) [nM],Ki (5-ht5a) [nM],Ki (5-HT6) [nM],Ki (5-HT7) [nM],EC50 (r5-HT2A) [nM],Emax (r5-HT2A) [%],EC50 (h5-HT2A) [nM],Emax (h5-HT2B) [%],EC50 (h5-HT2B) [nM],Emax (r5-HT2C) [%],also measured
"COc1ccc2[nH]cc(CCNCc3ccc(Br)cc3)c2c1 [Compound 5f, N-(4-Bromobenzyl)-2-(5-methoxy-1H-indol-3-yl)ethan-1-amine]",427,11.2,251,28.8,150,148,78,4370,271,> 10000,> 10000,1030,566,358,1500,77.6 ± 2.4,430,90 ± 2,290,108 ± 2,"Ki (5-HT1B; 5-HT1B pKi ± SEM): 4470 nM; Emax (h5-HT2A; HEK293, read-out: h5-HT2A Emax, percentage of the maximum response to 5-HT): 90.3 ± 1.2%; EC50 (r5-HT2C; r5-HT2C EC50, Ca2+ mobilization): 204 nM; Emax (h5-HT2C): 83 ± 7%; EC50 (h5-HT2C): 529 nM; selectivity for 5-HT2A over 5-HT2C receptors (5-HT2A receptor [5]): 1000 fold; affinity for the 5-HT2A receptor (5-HT2A receptor [6]): relatively low affinity; activity in the HTR assay (active / inactive) (Male C57BL/6J mice; SC): None of the phenethylamines or tryptamines with 4-substituted N-benzyl groups, 4b, 4e, 5c, or 5f, was active"
"COc1ccc2[nH]cc(CCNCc3ccccc3OC)c2c1 [Compound 5a, N-(2-Methoxybenzyl)-2-(5-methoxy-1H-indol-3-yl)ethan-1-amine]",16.6,1.51,32.4,3.39,9,9.12,231,> 10000,1290,> 10000,> 10000,> 10000,87,1770,21,80.9 ± 1.1,1.9,52 ± 2,6.7,102 ± 2,"h5-HT2A Emax (h5-HT2A; percentage of the maximum response to 5-HT): 85.2 ± 1.4%; EC50 (r5-HT2C; r5-HT2C pEC50 ± SEM, Ca2+ mobilization): 16.2 nM; Emax (h5-HT2C): 119 ± 6%; EC50 (h5-HT2C): 57.1 nM; pEC50, rat tail artery (rat tail artery): 7.08; max counts (Male C57BL/6J mice; HTR counts, SC): 25.4; ED50 (Male C57BL/6J mice; Mus musculus, sc, read-out: ED50 mg/kg (95% CI), mouse head twitch): 3.15 mg/kg; activity in the HTR assay (active / inactive) (Male C57BL/6J mice; SC): active; magnitude of peak effect × vehicle (Male C57BL/6J mice; SC, mouse head twitch): 3.9 × vehicle; maximally effective dose (Male C57BL/6J mice; SC, mouse head twitch): 10 mg/kg"
